Measured values: patent US10995359B2, “Method for determining drug-sensitive human cell lines by analysis method in which measurement of activity of two types of protein kinase is used” (NITTO BOSEKI CO., LTD., priority 2015, dated 2021)

Tests used:
Assay in all cases: Drug sensitivity assay (cell growth test), sulforhodamine B
Type in all cases: cell-based
MDA-MB-231 (MSL) cells = conditions: Homo sapiens, 72 hours, read-out: inhibition rate (%) by trametinib, classification by grid analysis
Method: (§1) Cultured cells were treated with a MEK inhibitor and a PI3K inhibitor in various concentrations, and cell lines sensitive to MEK and PI3K were classified by calculating a cell growth inhibition rate. The culture method and analysis method are as follows.
(§2) Thirteen types of cells used in the present study, HCC38 (BL1), MDA-MB-231 (MSL), DU4475 (IM), HCC1187 (IM), HCC1143 (BL1), HCC1395 (LAR), HCC1937 (BL1), MDA-MB-453 (LAR), HCC70 (BL2), HS578T (MSL), MDA-MB-157 (MSL) and MDA-MB-468 (BL1), were obtained from American type culture collection (ATCC), and SUM185PE (LAR) was obtained from ASTERAND BIOSCIENCE. All the cells belong to triple negative breast cancer (TNBC), and it is known which of six types (BL1, BL2, M, MSL, IM and LAR) these belong to by an existing classification method.
(§3) All the cells were cultured in a medium designated from a source of supply, and 2 mM L-glutamine and 10% fetal bovine serum (FBS) were supplemented.
(§4) Each type of cells was seeded in a 96 well titer plate at 1×10^4 cells/well, and trametinib, an MEK inhibitor (Medchem Express; 0.08, 0.16, 0.31, 0.63, 1.25, 2.5, 5, 10 and 20 μM), and wortmannin, a PI3K inhibitor (Wako Pure Chemical Industries, Ltd.; 0.08, 0.16, 0.31, 0.63, 1.25, 2.5, 5, 10 and 20 μM) were dissolved in Dimethyl Sulfoxide [DMSO] (Wako Pure Chemical Industries, Ltd.) in various concentrations and treated. In addition, the effect on cell growth was examined at 72 hours after the inhibitor by sulforhodamine B assay (manufactured by SIGMA-ALDRICH), and 50 μL of sulforhodamine B solution was added to each well and cells were left at room temperature for an hour for staining. The staining degree of metabolically survival cells was examined by monitoring absorbance at a wavelength of 565 nm using a microtiter plate. The absorbance of cells which were not treated with trametinib and wortmannin (treated with DMSO) was used as a control and defined as 100% to calculate a cell growth inhibition rate.
(§5) The cell lines were classified into 4 types, cell lines sensitive to wortmannin (hereinafter, PA), cell lines sensitive to trametinib (hereinafter, MA), cell lines resistant to wortmannin and trametinib (hereinafter, R), and others (hereinafter, S). In the classification, first the inhibition rate of each drug was calculated in a concentration of 1 μM, and the inhibition rate (%) by trametinib and the inhibition rate (%) by wortmannin were plotted on the X axis and Y axis respectively on a graph.
as §5, with “100 nM,” for “1 μM,”
as §5, with “10” for “1”, “graph. Using a 50% growth inhibition rate as an index of the inhibitive effect of a drug, cells were classified into 4 types by grid analysis.” for “graph.”

MDA-MB-157 (MSL) cells = conditions: Homo sapiens, 72 hours, read-out: inhibition rate (%) by trametinib, classification by grid analysis
Method: as §1, §2, §3, §4, §5
as §5, with “100 nM,” for “1 μM,”
as §5, with “10” for “1”, “graph. Using a 50% growth inhibition rate as an index of the inhibitive effect of a drug, cells were classified into 4 types by grid analysis.” for “graph.”

SUM185PE (LAR) cells = conditions: Homo sapiens, 72 hours, read-out: inhibition rate (%) by trametinib, classification by grid analysis
Method: as §1, §2, §3, §4, §5
as §5, with “100 nM,” for “1 μM,”
as §5, with “10” for “1”, “graph. Using a 50% growth inhibition rate as an index of the inhibitive effect of a drug, cells were classified into 4 types by grid analysis.” for “graph.”

MDA-MB-468 (BL1) cells = conditions: Homo sapiens, 72 hours, read-out: inhibition rate (%) by trametinib, classification by grid analysis
Method: as §1, §2, §3, §4, §5
as §5, with “100 nM,” for “1 μM,”
as §5, with “10” for “1”, “graph. Using a 50% growth inhibition rate as an index of the inhibitive effect of a drug, cells were classified into 4 types by grid analysis.” for “graph.”

HCC38 (BL1) cells = conditions: Homo sapiens, 72 hours, read-out: inhibition rate (%) by trametinib, classification by grid analysis
Method: as §1, §2, §3, §4, §5
as §5, with “100 nM,” for “1 μM,”
as §5, with “10” for “1”, “graph. Using a 50% growth inhibition rate as an index of the inhibitive effect of a drug, cells were classified into 4 types by grid analysis.” for “graph.”

HCC1143 (BL1) cells = conditions: Homo sapiens, 72 hours, read-out: inhibition rate (%) by trametinib, classification by grid analysis
Method: as §1, §2, §3, §4, §5
as §5, with “100 nM,” for “1 μM,”
as §5, with “10” for “1”, “graph. Using a 50% growth inhibition rate as an index of the inhibitive effect of a drug, cells were classified into 4 types by grid analysis.” for “graph.”

HS578T (MSL) cells = conditions: Homo sapiens, Hs-578T, 72 hours, read-out: inhibition rate (%) by trametinib, classification by grid analysis
Method: as §1, §2, §3, §4, §5
as §5, with “100 nM,” for “1 μM,”
as §5, with “10” for “1”, “graph. Using a 50% growth inhibition rate as an index of the inhibitive effect of a drug, cells were classified into 4 types by grid analysis.” for “graph.”

HCC70 (BL2) cells = conditions: Homo sapiens, 72 hours, read-out: inhibition rate (%) by trametinib, classification by grid analysis
Method: as §1, §2, §3, §4, §5
as §5, with “100 nM,” for “1 μM,”
as §5, with “10” for “1”, “graph. Using a 50% growth inhibition rate as an index of the inhibitive effect of a drug, cells were classified into 4 types by grid analysis.” for “graph.”

DU4475 (IM) cells = conditions: Homo sapiens, DU-4475, 72 hours, read-out: inhibition rate (%) by trametinib, classification by grid analysis
Method: as §1, §2, §3, §4, §5
as §5, with “100 nM,” for “1 μM,”
as §5, with “10” for “1”, “graph. Using a 50% growth inhibition rate as an index of the inhibitive effect of a drug, cells were classified into 4 types by grid analysis.” for “graph.”

[1] = 100 nM, index 12.5% growth inhibition rate
[2] = 1 μM, index 25% growth inhibition rate
[3] = 10 μM, index 50% growth inhibition rate

CC(=O)Nc1cccc(-n2c(=O)n(C3CC3)c(=O)c3c(Nc4ccc(I)cc4F)n(C)c(=O)c(C)c32)c1 [trametinib]
inhibition at 0.1 µM (MDA-MB-231 (MSL) cells; MDA-MB-231, 100 nM, index 12.5% growth inhibition rate): > 12.5% | inhibition at 1 µM (MDA-MB-231 (MSL) cells; MDA-MB-231, 1 μM, index 25% growth inhibition rate): > 25% | inhibition at 10 µM (MDA-MB-231 (MSL) cells; MDA-MB-231, 10 μM, index 50% growth inhibition rate): > 50% | inhibition at 0.1 µM (MDA-MB-157 (MSL) cells; MDA-MB-157, 100 nM, index 12.5% growth inhibition rate): < 12.5% | inhibition at 1 µM (MDA-MB-157 (MSL) cells; MDA-MB-157, 1 μM, index 25% growth inhibition rate): < 25% | inhibition at 10 µM (MDA-MB-157 (MSL) cells; MDA-MB-157, 10 μM, index 50% growth inhibition rate): < 50% | inhibition at 0.1 µM (SUM185PE (LAR) cells; [1]): < 12.5% | inhibition at 1 µM (SUM185PE (LAR) cells; [2]): < 25% | inhibition at 10 µM (SUM185PE (LAR) cells; [3]): < 50% | inhibition at 0.1 µM (MDA-MB-468 (BL1) cells; MDA-MB-468, 100 nM, index 12.5% growth inhibition rate): < 12.5% | inhibition at 1 µM (MDA-MB-468 (BL1) cells; MDA-MB-468, 1 μM, index 25% growth inhibition rate): < 25% | inhibition at 10 µM (MDA-MB-468 (BL1) cells; MDA-MB-468, 10 μM, index 50% growth inhibition rate): < 50% | inhibition at 0.1 µM (HCC38 (BL1) cells; HCC38, 100 nM, index 12.5% growth inhibition rate): > 12.5% | inhibition at 1 µM (HCC38 (BL1) cells; HCC38, 1 μM, index 25% growth inhibition rate): > 25% | inhibition at 10 µM (HCC38 (BL1) cells; HCC38, 10 μM, index 50% growth inhibition rate): > 50% | inhibition at 0.1 µM (HCC1143 (BL1) cells; HCC1143, 100 nM, index 12.5% growth inhibition rate): > 12.5% | inhibition at 1 µM (HCC1143 (BL1) cells; HCC1143, 1 μM, index 25% growth inhibition rate): > 25% | inhibition at 10 µM (HCC1143 (BL1) cells; HCC1143, 10 μM, index 50% growth inhibition rate): > 50% | inhibition at 0.1 µM (HS578T (MSL) cells; [1]): < 12.5% | inhibition at 1 µM (HS578T (MSL) cells; [2]): < 25% | inhibition at 10 µM (HS578T (MSL) cells; [3]): < 50% | inhibition at 0.1 µM (HCC70 (BL2) cells; HCC70, 100 nM, index 12.5% growth inhibition rate): > 12.5% | inhibition at 1 µM (HCC70 (BL2) cells; HCC70, 1 μM, index 25% growth inhibition rate): > 25% | inhibition at 10 µM (HCC70 (BL2) cells; HCC70, 10 μM, index 50% growth inhibition rate): > 50% | inhibition at 0.1 µM (DU4475 (IM) cells; DU4475, 100 nM, index 12.5% growth inhibition rate): > 12.5% | inhibition at 1 µM (DU4475 (IM) cells; DU4475, 1 μM, index 25% growth inhibition rate): > 25% | inhibition at 10 µM (DU4475 (IM) cells; DU4475, 10 μM, index 50% growth inhibition rate): > 50%
